Reference: patent publication US20140171431A1, “AZOLE HETEROCYCLIC COMPOUND, PREPARATION METHOD, PHARMACEUTICAL COMPOSITION AND USE” (priority 2011, published 2014)
Like-named read-outs stand apart in the source and are kept apart here.

How the values were obtained:
[1] = biological target: T1, Lp-PLA2 in human serum (Homo sapiens, UniProt Q13093); assay: In vitro inhibitory activity towards the enzyme Lp-PLA2 in human serum, [3H]PAF substrate; type: biochemical; details: for inhibition at 0.01 µM: 10 nM; for inhibition at 0.1 µM: 100 nM
T1 construct: from tissue
T1 sequence (Q13093 22-441): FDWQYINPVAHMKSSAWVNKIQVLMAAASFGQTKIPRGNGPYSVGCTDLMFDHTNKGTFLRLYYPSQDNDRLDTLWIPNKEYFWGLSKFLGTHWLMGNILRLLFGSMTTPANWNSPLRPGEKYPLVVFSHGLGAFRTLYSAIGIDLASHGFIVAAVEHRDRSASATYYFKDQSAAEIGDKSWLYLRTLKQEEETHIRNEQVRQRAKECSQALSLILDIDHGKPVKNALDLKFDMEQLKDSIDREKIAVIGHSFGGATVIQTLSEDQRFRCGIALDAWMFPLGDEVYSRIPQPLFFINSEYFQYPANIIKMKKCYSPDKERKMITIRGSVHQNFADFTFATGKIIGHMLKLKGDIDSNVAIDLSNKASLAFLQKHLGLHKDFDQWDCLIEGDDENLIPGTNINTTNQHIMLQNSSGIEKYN
Description: The activities of compounds were measured using [^3H] labeled platelet activating factor ([^3H]PAF, Perkinelmer, Lot NET910) as the substrate. The reaction was carried out in a system containing 50 mmol/l HEPES and 150 mmol/l NaCl (pH 7.4) in a total volume of 200 μl. First, 10 μL human plasma and 10 μl DMSO solution of the test compound were added to the system and preincubated for 10 min at 37° C. Then 20 nM [^3H]PAF was added as listed in table 1 to start the reaction and incubated for a further 10 min at 37° C. After that, 600 μl of CHCl3/MeOH (2:1) was added and the resulting mixture was mixed with vortex. After settled for a while, the mixture was centrifugated at 12000×g for 15 min. The supernatant was transferred to a new tube and 200 μl of CHCl3 was added and mixed by vortexing. The mixture was settled or centrifugated for 2 min. A 100 μl portion of the supernatant was then collected for radioactivity intensity measurement.

[2] = biological target: T2, Lp-PLA2 in rabbit serum (Oryctolagus cuniculus, UniProt G1SE06); assay: In vitro inhibitory activity towards the enzyme Lp-PLA2 in rabbit serum, [3H]PAF substrate; type: biochemical; details: for inhibition at 0.1 µM: 100 nM
T2 construct: from tissue; host or cells: rabbit serum
T2 sequence (G1SE06 22-423): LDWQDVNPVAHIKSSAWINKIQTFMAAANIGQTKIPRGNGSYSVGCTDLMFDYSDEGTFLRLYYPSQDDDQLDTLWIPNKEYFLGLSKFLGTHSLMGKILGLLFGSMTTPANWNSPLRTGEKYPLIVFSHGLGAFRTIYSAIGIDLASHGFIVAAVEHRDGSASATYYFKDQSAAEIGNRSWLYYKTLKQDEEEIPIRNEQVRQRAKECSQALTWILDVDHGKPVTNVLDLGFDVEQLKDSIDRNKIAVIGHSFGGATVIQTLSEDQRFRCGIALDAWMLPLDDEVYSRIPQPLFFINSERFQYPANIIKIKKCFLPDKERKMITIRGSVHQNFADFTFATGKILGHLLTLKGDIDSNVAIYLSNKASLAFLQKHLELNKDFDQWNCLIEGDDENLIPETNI
Description: The activities of compounds were measured using [^3H] labeled platelet activating factor ([^3H]PAF, Perkinelmer, Lot NET910) as the substrate. The reaction was carried out in a system containing 50 mmol/L HEPES and 150 mmol/L NaCl (pH 7.4) in a total volume of 200 μl. First, 10 μL rabbit serum and 10 μl DMSO solution of the test compound were added to the system and preincubated for 10 min at 37° C. Then 20 nM [^3H]PAF was added as listed in table 1 to start the reaction and incubated for a further 10 min at 37° C. After that, 600 μl of CHCl3/MeOH (2:1) was added and the resulting mixture was vortex mixed and the reaction was stopped. After settled for a while, the mixture was centrifugated at 12000×g for 15 min. The supernatant was transferred to a new tube and 200 μl of CHCl3 was added. The mixture was mixed by vortexing and then settled or centrifugated for 2 min. A 100 μl portion of the supernatant was then collected for radioactivity intensity measurement.
The inhibition rate was determined by the following equation:
Inhibitory rate (%)=1−(DPMcompound tube−DPMblank tube)/(DPMcontrol tube−DPMblank tube)*100%
(Note: DPM is radioactivity intensity unit.)

[3] = human serum, read-out: inhibition, %
[4] = read-out: inhibitory rate towards the human serum derived Lp-PLA2 enzyme
[5] = rabbit serum, read-out: inhibition, %
[6] = read-out: inhibitory rate towards the rabbit serum derived Lp-PLA2 enzyme

| SMILES | inhibition at 0.01 µM [1, 3] | inhibition at 0.01 µM [1, 4] | inhibition at 0.1 µM ([1]; human serum) | inhibition at 0.1 µM [2, 5] | inhibition at 0.1 µM [2, 6] | inhibition at 1 µM ([2]; 1 μM, rabbit serum) |
| --- | --- | --- | --- | --- | --- | --- |
| CN(Cc1ccc(F)cc1)Cc1nnc(Cn2c(SCc3ccc(F)cc3)nc(=O)c3c2CCC3)n1Cc1ccc(-c2ccc(C(F)(F)F)cc2)cc1 [Example 81, 1-((5-(((4-fluorobenzyl)(methyl)amino)methyl)-4-((4′-(trifluoromethyl)biphenyl-4-yl)methyl)-4H-1,2,4-triazol-3-yl)methyl)-2-(4-fluorobenzylthio)-6,7-dihydro-1H-cyclopenta[d]pyrimidin-4(5H)-one] | 93% | > 80% | 98% | 90% | > 90% |  |
| O=c1nc(SCc2ccc(F)cc2)n(Cc2nnc(C3CC3)n2Cc2ccc(-c3ccc(C(F)(F)F)cc3)cc2)c2c1CCC2 [Example 68, 1-((5-cyclopropyl-4-((4′-(trifluoromethyl)biphenyl-4-yl)methyl)-4H-1,2,4-triazol-3-yl)methyl)-2-(4-fluorobenzylthio)-6,7-dihydro-1H-cyclopenta[d]pyrimidin-4(5 H)-one] | 93% |  | 97% | 34% |  | 87% |
| CC(C)c1nnc(Cn2c(SCc3ccc(F)cc3)nc(=O)c3c2CCC3)n1Cc1ccc(-c2ccc(C(F)(F)F)cc2)cc1 [Example 67, 2-(4-fluorobenzylthio)-1-((5-isopropyl-4-((4′-(trifluoromethyl)biphenyl-4-yl)methyl)-4H-1,2,4-triazol-3-yl)methyl)-6,7-dihydro-1H-cyclopenta[d]pyrimidin-4(5H)-one] | 92% | > 80% | 98% | 91% | > 90% |  |
| O=c1nc(SCc2ccc(F)cc2)n(Cc2nnc(CO)n2Cc2ccc(-c3ccc(C(F)(F)F)cc3)cc2)c2c1CCC2 [Example 72, 2-(4-fluorobenzylthio)-1-((5-(hydroxymethyl)-4-((4′-(trifluoromethyl)biphenyl-4-yl)methyl)-4H-1,2,4-triazol-3-yl)methyl)-6,7-dihydro-1H-cyclopenta[d]pyrimidin-4(5H)-one] | 65% |  | 91% | 73% |  |  |
| O=c1nc(SCc2ccc(F)cc2)n(Cc2ncc(CN3CCCC3)n2Cc2ccc(-c3ccc(C(F)(F)F)cc3)cc2)c2c1CCC2 [Example 43, 2-(4-fluorobenzylthio)-1-((5-(pyrrolidin-1-ylmethyl)-1-((4′-(trifluoromethyl)biphenyl-4-yl)methyl)-1H-imidazol-2-yl)methyl)-6,7-dihydro-1H-cyclopenta[d]pyrimidin-4(5H)-one] | 67% |  | 92% | 78.6% |  |  |
| O=c1nc(SCc2ccc(F)cc2)n(Cc2nnc(CS(=O)(=O)Cc3ccccc3)n2Cc2ccc(-c3ccc(C(F)(F)F)cc3)cc2)c2c1CCC2 [Example 69, 1-((5-(benzylsulfonylmethyl)-4-((4′-(trifluoromethyl)biphenyl-4-yl)methyl)-4H-1,2,4-triazol-3-yl)methyl)-2-(4-fluorobenzylthio)-6,7-dihydro-1H-cyclopenta[d]pyrimidin-4(5H)-one] | 87% |  | 97% | 89% |  |  |
| CC(C)N(C)Cc1nnc(Cn2c(SCc3ccc(F)cc3)nc(=O)c3c2CCC3)n1Cc1ccc(-c2ccc(C(F)(F)F)cc2)cc1 [Example 82, 2-(4-fluorobenzylthio)-1-((5-((isopropyl(methyl)amino)methyl)-4-((4′-(trifluoromethyl)biphenyl-4-yl)methyl)-4H-1,2,4-triazol-3-yl)methyl)-6,7-dihydro-1H-cyclopenta[d]pyrimidin-4(5H)-one] | 77% |  | 98% | 85% |  |  |

Continued, values first:

| inhibition at 0.01 µM [1, 3] | inhibition at 0.01 µM [1, 4] | inhibition at 0.1 µM ([1]; human serum) | inhibition at 0.1 µM [2, 5] | inhibition at 0.1 µM [2, 6] | inhibition at 1 µM ([2]; 1 μM, rabbit serum) | SMILES |
| --- | --- | --- | --- | --- | --- | --- |
| 89% | > 80% | 98% | 90% | > 90% |  | CC(O)c1nnc(Cn2c(SCc3ccc(F)cc3)nc(=O)c3c2CCC3)n1Cc1ccc(-c2ccc(C(F)(F)F)cc2)cc1 (stereo not shown) [Example 120, 2-(4-fluorobenzylthio)-1-((5-(1-hydroxyethyl)-4-((4′-(trifluoromethyl)biphenyl-4-yl)methyl)-4H-1,2,4-triazol-3-yl)methyl)-6,7-dihydro-1H-cyclopenta[d]pyrimidin-4(5H)-one] |
| 58% |  | 88% | 68% |  |  | CC(C)(C)N/N=C/c1nnc(Cn2c(SCc3ccc(F)cc3)nc(=O)c3c2CCC3)n1Cc1ccc(-c2ccc(C(F)(F)F)cc2)cc1 [Example 118] |
| 76% |  |  | 92% |  |  | CCN(CC)CCOCc1nnc(Cn2c(SCc3ccc(F)cc3)nc(=O)c3c2CCC3)n1Cc1ccc(-c2ccc(C(F)(F)F)cc2)cc1 [Example 125, 1-((5-((2-(diethylamino)ethoxy)methyl)-4-((4′-(trifluoromethyl)biphenyl-4-yl)methyl)-4H-1,2,4-triazol-3-yl)methyl)-2-(4-fluorobenzylthio)-6,7-dihydro-1H-cyclopenta[d]pyrimidin-4(5H)-one] |
| 77% |  |  | 97% |  |  | O=C1NCCN1CCNCc1nnc(Cn2c(SCc3ccc(F)cc3)nc(=O)c3c2CCC3)n1Cc1ccc(-c2ccc(C(F)(F)F)cc2)cc1 [Example 102, 2-(4-fluorobenzylthio)-1-((5-((2-(2-oxoimidazolidin-1-yl)ethylamino)methyl)-4-((4′-(trifluoromethyl)biphenyl-4-yl)methyl)-4H-1,2,4-triazol-3-yl)methyl)-6,7-dihydro-1H-cyclopenta[d]pyrimidin-4(5H)-one] |
| 59% |  | 91% | 67% |  |  | COC(=O)C(C)(C)N1CCN(Cc2nnc(Cn3c(SCc4ccc(F)cc4)nc(=O)c4c3CCC4)n2Cc2ccc(-c3ccc(C(F)(F)F)cc3)cc2)CC1 [Example 88, methyl-2-(4-((5-((2-(4-fluorobenzylthio)-4-oxo-4,5,6,7-tetrahydro-1H-cyclopenta[d]pyrimidin-1-yl)methyl)-4-((4′-(trifluoromethyl)biphenyl-4-yl)methyl)-4H-1,2,4-triazol-3-yl)methyl)piperazin-1-yl)-2-methylpropanoate] |
| 67% |  | 92% | 80% |  |  | O=c1nc(SCc2ccc(F)cc2)n(Cc2nnc(/C=N/N3CCCCC3)n2Cc2ccc(-c3ccc(C(F)(F)F)cc3)cc2)c2c1CCC2 [Example 117, (E)-2-(4-fluorobenzylthio)-1-((5-((piperidin-1-ylimino)methyl)-4-((4′-(trifluoromethyl)biphenyl-4-yl)methyl)-4H-1,2,4-triazol-3-yl)methyl)-6,7-dihydro-1H-cyclopenta[d]pyrimidin-4(5H)-one] |
| 92% |  |  | 94% |  |  | CCN(CC)CCNC(C)c1nnc(Cn2c(SCc3ccc(F)cc3)nc(=O)c3c2CCC3)n1Cc1ccc(-c2ccc(C(F)(F)F)cc2)cc1 (stereo not shown) [Example 130, 1-((5-(1-(2-(diethylamino)ethylamino)ethyl)-4-((4′-(trifluoromethyl)biphenyl-4-yl)methyl)-4H-1,2,4-triazol-3-yl)methyl)-2-(4-fluorobenzylthio)-6,7-dihydro-1H-cyclopenta[d]pyrimidin-4(5H)-one] |
